Columns and labels:
[1] = Comparative HPPD stability: decomposition of mesotrione in the formulation acidified by various acids; type: physicochemical
Protocol: The final formulation is prepared by 134.4 grams of the S-metolachlor CS with 22.9 grams of water and under agitation adding 15.2 grams of the mesotrione millbase. This is followed by the addition of 152.7 grams of the Potassium Glyphosate concentrate and then 17.5 grams of the Rhodopol 23 pregel of the previous example. […]

[2] = Stability of mesotrione in chloroacetamides (Example 6, FIG. 1 and FIG. 2); type: physicochemical; details: in chloroacetamides (S-MOC=S-metolachlor)
Protocol: Experiments were conducted to look at the stability of mesotrione in chloroacetamides.

Which results are given for `CS(=O)(=O)c1ccc(C(=O)C2C(=O)CCCC2=O)c([N+](=O)[O-])c1` [Mesotrione, 2-(2′-nitro-4′-methylsulphonylbenzoyl)-1,3-cyclohexanedione]?
Percentage Decomposition of Mesotrione ([1]; Gluconic acid, 38 C., 1 MONTH): 4.30%; Percentage Decomposition of Mesotrione ([1]; Gluconic acid, 38 C., 1 WEEK): 1.59%; Percentage Decomposition of Mesotrione ([1]; Gluconic acid, 38 C., 2 MONTHS): 7.42%; Percentage Decomposition of Mesotrione ([1]; Gluconic acid, 38 C., 2 WEEKS): 1.77%; Percentage Decomposition of Mesotrione ([1]; Gluconic acid, 38 C., 3 MONTHS): 11.23%; Percentage Decomposition of Mesotrione ([1]; Gluconic acid, 38 C., 3 WEEKS): 3.00%; Percentage Decomposition of Mesotrione ([1]; Gluconic acid, 45 C., 1 MONTH): 10.22%; Percentage Decomposition of Mesotrione ([1]; Gluconic acid, 45 C., 1 WEEK): 1.75%; Percentage Decomposition of Mesotrione ([1]; Gluconic acid, 45 C., 2 MONTHS): 23.39%; Percentage Decomposition of Mesotrione ([1]; Gluconic acid, 45 C., 2 WEEKS): 4.91%; Percentage Decomposition of Mesotrione ([1]; Gluconic acid, 45 C., 3 MONTHS): 35.81%; Percentage Decomposition of Mesotrione ([1]; Gluconic acid, 45 C., 3 WEEKS): 6.77%; Percentage Decomposition of Mesotrione ([1]; Gluconic acid, 50 C., 1 MONTH): 26.24%; Percentage Decomposition of Mesotrione ([1]; Gluconic acid, 50 C., 1 WEEK): 5.91%; Percentage Decomposition of Mesotrione ([1]; Gluconic acid, 50 C., 2 MONTHS): 54.80%; Percentage Decomposition of Mesotrione ([1]; Gluconic acid, 50 C., 2 WEEKS): 11.61%; Percentage Decomposition of Mesotrione ([1]; Gluconic acid, 50 C., 3 DAYS): 3.26%; Percentage Decomposition of Mesotrione ([1]; Gluconic acid, 50 C., 3 MONTHS): 73.08%; Percentage Decomposition of Mesotrione ([1]; Gluconic acid, 50 C., 3 WEEKS): 17.40%; Percentage Decomposition of Mesotrione ([1]; Gluconic acid, −18 C., 6 MONTHS): −0.18%; Percentage Decomposition of Mesotrione ([1]; No acid, 38 C., 1 MONTH): 17.27%; Percentage Decomposition of Mesotrione ([1]; No acid, 38 C., 1 WEEK): 4.63%; Percentage Decomposition of Mesotrione ([1]; No acid, 38 C., 2 MONTHS): 25.52%; Percentage Decomposition of Mesotrione ([1]; No acid, 38 C., 2 WEEKS): 9.97%; Percentage Decomposition of Mesotrione ([1]; No acid, 38 C., 3 MONTHS): 31.02%; Percentage Decomposition of Mesotrione ([1]; No acid, 38 C., 3 WEEKS): 13.05%; Percentage Decomposition of Mesotrione ([1]; No acid, 45 C., 1 MONTH): 32.01%; Percentage Decomposition of Mesotrione ([1]; No acid, 45 C., 1 WEEK): 11.97%; Percentage Decomposition of Mesotrione ([1]; No acid, 45 C., 2 MONTHS): 49.76%; Percentage Decomposition of Mesotrione ([1]; No acid, 45 C., 2 WEEKS): 19.71%; Percentage Decomposition of Mesotrione ([1]; No acid, 45 C., 3 MONTHS): 62.57%; Percentage Decomposition of Mesotrione ([1]; No acid, 45 C., 3 WEEKS): 25.71%; Percentage Decomposition of Mesotrione ([1]; No acid, 50 C., 1 MONTH): 53.82%; Percentage Decomposition of Mesotrione ([1]; No acid, 50 C., 1 WEEK): 20.39%; Percentage Decomposition of Mesotrione ([1]; No acid, 50 C., 2 MONTHS): 77.94%; Percentage Decomposition of Mesotrione ([1]; No acid, 50 C., 2 WEEKS): 35.25%; Percentage Decomposition of Mesotrione ([1]; No acid, 50 C., 3 DAYS): 11.30%; Percentage Decomposition of Mesotrione ([1]; No acid, 50 C., 3 MONTHS): 88.38%; Percentage Decomposition of Mesotrione ([1]; No acid, 50 C., 3 WEEKS): 46.31%; Percentage Decomposition of Mesotrione ([1]; No acid, −18 C., 6 MONTHS): 1.07%; Percentage Decomposition of Mesotrione ([1]; Phosphoric acid, 38 C., 1 MONTH): 3.48%; Percentage Decomposition of Mesotrione ([1]; Phosphoric acid, 38 C., 1 WEEK): 1.30%; Percentage Decomposition of Mesotrione ([1]; Phosphoric acid, 38 C., 2 MONTHS): 5.08%; Percentage Decomposition of Mesotrione ([1]; Phosphoric acid, 38 C., 2 WEEKS): 1.09%; Percentage Decomposition of Mesotrione ([1]; Phosphoric acid, 38 C., 3 MONTHS): 7.65%; Percentage Decomposition of Mesotrione ([1]; Phosphoric acid, 38 C., 3 WEEKS): 1.40%; Percentage Decomposition of Mesotrione ([1]; Phosphoric acid, 45 C., 1 MONTH): 7.12%; Percentage Decomposition of Mesotrione ([1]; Phosphoric acid, 45 C., 1 WEEK): 1.87%; Percentage Decomposition of Mesotrione ([1]; Phosphoric acid, 45 C., 2 MONTHS): 14.59%; Percentage Decomposition of Mesotrione ([1]; Phosphoric acid, 45 C., 2 WEEKS): 2.43%; Percentage Decomposition of Mesotrione ([1]; Phosphoric acid, 45 C., 3 MONTHS): 23.48%; Percentage Decomposition of Mesotrione ([1]; Phosphoric acid, 45 C., 3 WEEKS): 3.13%; Percentage Decomposition of Mesotrione ([1]; Phosphoric acid, 50 C., 1 MONTH): 16.79%; Percentage Decomposition of Mesotrione ([1]; Phosphoric acid, 50 C., 1 WEEK): 2.93%; Percentage Decomposition of Mesotrione ([1]; Phosphoric acid, 50 C., 2 MONTHS): 36.38%; Percentage Decomposition of Mesotrione ([1]; Phosphoric acid, 50 C., 2 WEEKS): 7.09%; Percentage Decomposition of Mesotrione ([1]; Phosphoric acid, 50 C., 3 DAYS): 1.77%; Percentage Decomposition of Mesotrione ([1]; Phosphoric acid, 50 C., 3 MONTHS): 58.11%; Percentage Decomposition of Mesotrione ([1]; Phosphoric acid, 50 C., 3 WEEKS): 10.85%; Percentage Decomposition of Mesotrione ([1]; Phosphoric acid, −18 C., 6 MONTHS): 0.94%; Percentage Decomposition of Mesotrione ([1]; Toluene-sulfonic acid, 38 C., 1 MONTH): 2.81%; Percentage Decomposition of Mesotrione ([1]; Toluene-sulfonic acid, 38 C., 1 WEEK): 0.75%; Percentage Decomposition of Mesotrione ([1]; Toluene-sulfonic acid, 38 C., 2 MONTHS): 4.00%; Percentage Decomposition of Mesotrione ([1]; Toluene-sulfonic acid, 38 C., 2 WEEKS): 0.78%; Percentage Decomposition of Mesotrione ([1]; Toluene-sulfonic acid, 38 C., 3 MONTHS): 2.14%; Percentage Decomposition of Mesotrione ([1]; Toluene-sulfonic acid, 38 C., 3 WEEKS): 1.74%; Percentage Decomposition of Mesotrione ([1]; Toluene-sulfonic acid, 45 C., 1 MONTH): 5.85%; Percentage Decomposition of Mesotrione ([1]; Toluene-sulfonic acid, 45 C., 1 WEEK): 1.64%; Percentage Decomposition of Mesotrione ([1]; Toluene-sulfonic acid, 45 C., 2 MONTHS): 11.08%; Percentage Decomposition of Mesotrione ([1]; Toluene-sulfonic acid, 45 C., 2 WEEKS): 3.06%; Percentage Decomposition of Mesotrione ([1]; Toluene-sulfonic acid, 45 C., 3 MONTHS): 18.29%; Percentage Decomposition of Mesotrione ([1]; Toluene-sulfonic acid, 45 C., 3 WEEKS): 4.12%; Percentage Decomposition of Mesotrione ([1]; Toluene-sulfonic acid, 50 C., 1 MONTH): 13.91%; Percentage Decomposition of Mesotrione ([1]; Toluene-sulfonic acid, 50 C., 1 WEEK): 2.32%; Percentage Decomposition of Mesotrione ([1]; Toluene-sulfonic acid, 50 C., 2 MONTHS): 28.00%; Percentage Decomposition of Mesotrione ([1]; Toluene-sulfonic acid, 50 C., 2 WEEKS): 5.94%; Percentage Decomposition of Mesotrione ([1]; Toluene-sulfonic acid, 50 C., 3 DAYS): 2.11%; Percentage Decomposition of Mesotrione ([1]; Toluene-sulfonic acid, 50 C., 3 MONTHS): 44.55%; Percentage Decomposition of Mesotrione ([1]; Toluene-sulfonic acid, 50 C., 3 WEEKS): 9.69%; Percentage Decomposition of Mesotrione ([1]; Toluene-sulfonic acid, −18 C., 6 MONTHS): 0.05%; stability of mesotrione in chloroacetamides [2]: lack of stability
